Marks after values point to notes of the source that are not given here.
Key:
[1] = Example 3: feed consumption, weight gain and diet AME; type: in vivo, broiler chickens; details: sinapic acid 0.025% in diet
Description: Broiler chickens were fed a corn-soybean meal based diet either unsupplemented or supplemented with sinapic acid at a level of 0.025%, 0.05% or 0.1%. After the supplementation period, microbial analysis was conducted. This Example was designed to confirm the results of Example 2, to assess effects on microbial community, and to repeat the VFA measurement by increasing the chick numbers within the replication.
Ninety-six ([…]) male broiler chicks (Peterson X Hubbard) were randomly assigned to four treatments, with six birds in each replication and four replications for each treatment. A corn-soybean based diet served as a control, while another three diets were supplemented with graded levels of sinapic acid (0.025, 0.05 and 0.10%). Bird management was as previously described in Example 1. Volatile fatty acid measurement was conducted as described in Example 2, except that digesta was pooled from six birds per replication.

[2] = Example 1: apparent sinapic acid digestibility (HPLC of feed, excreta, digesta); type: in vivo, broiler chickens; details: dietary sinapic acid 0.025-0.10%
Description: (§1) Sample Analyses. Acid insoluble ash (AIA, Celite) was used as an indigestible marker for the determination of the apparent digestibility of metabolizable energy, protein (ileal and fecal) and SA. AIA was determined by using the procedure of Vogtmann et al, 1975 Br. Poult. Sci. 67:641-646. The gross energy was measured by a traditional bomb calorimeter, and crude protein was analyzed by a Leco FP-528™ protein analyzer (Model No. 601-500-100, Serial#3211, LECO Corporation, 3000 Lakeview Avenue, St. Joseph Mich. 49085-2396 USA). Based on the assay of nutrient and AIA in feed, excreta, and ileal content, the nutrient digestibility was determined.
The analysis of sinapic acid in feed, excreta and digesta samples was conducted by HPLC using a reversed-phase column under the fluorescence detection method. The mobile phase was isocratic, based on 6% MeOH solution with 20 mmol K2HPO4 as basic buffer. For feed and excreta samples, the analysis was conducted at pH 9.5, however, for ileal and cecal samples, the pH was changed to 9 to obtain better background separation and chromatograms.

[3] = tested on: cecal microbial community; experiment: Example 3: microbial community assay, % G+C profile of cecal digesta; type: in vivo, broiler chickens; details: dose dependent, sinapic acid 0.025-0.10% in diet
[4] = Example 1: apparent nutrient digestibility (AME, ileal and fecal protein); type: in vivo, broiler chickens; details: for AME (apparent metabolizable energy): excreta 16-18 d
Description: as §1

[5] = Example 1: performance of broiler chickens on dietary sinapic acid (gain, feed intake, gain/feed); type: in vivo; details: 0-18 d of age
Source text: Bird management. Broilers were housed in battery brooders.

[6] = tested on: bacterial populations in the ileum and ceca; experiment: Example 2: volatile fatty acid content of ileal and cecal digesta (0.05-0.20% sinapic acid); type: in vivo, broiler chickens; details: sinapic acid 0.05-0.20% in diet
Description: Bird management and diet composition were as described in Example 1. Volatile Fatty Acid (VFA) Measurement. The status of bacterial populations in the ileum and ceca of experimental birds was assessed by examining VFA production. The birds were killed by lethal injection with T-61TM(Euthanasia solution) and the ileal and cecal digesta of three birds within each replication were collected in a well-sealed plastic centrifuge tube and then frozen at -20° C. Ileal digesta were collected from the terminal ileum (distal half excluding the last 2 cm anterior from the ceca). Samples within a replication were pooled and mixed well prior to VFA measurement. Analyses of VFA (acetic, propionic, isobutyric, butyric, isovaleric, and valeric acid) were conducted by Gas Chromatography (GC) (Varian Star 3400) using a StabilwaxTM-DA column (0.25 mm ID, 0.25 μm […] Corporation, 110 Benner Circle, Bellefonte Pa., 16823-8812 USA) and based on the procedure of Choct et al. (Br. Poult. […] A concentration of 2 mmol/L is acceptable for the internal standard in intestinal content samples. One ml of standard solution was added to 0.2 (cecal) or 0.5 (ileal) g of sample and vortexed until well-mixed. The mixture was then centrifuged at 28,000 g for 10 minutes and the supernatant pipetted into GC vials for analysis. Statistical Analyses. […]

Structure (SMILES): COc1cc(C=CC(=O)O)cc(OC)c1O [Sinapic Acid, 4-hydroxy-3,5dimethyoxy-cinnamic acid]
- feed consumption [1]: increased
- increase in diet AME [1]: 2%
- increase in weight gain [1]: 6%
- sinapic acid in the cecal digesta [2]: no sinapic acid found
- amounts of cecal microbes in the range % G+C 40-54 [3]: decreased
- relative abundance of cecal bacteria in the range % G+C 20-30 [3]: increased
- relative abundance of cecal bacteria in the range % G+C 55-69 [3]: increased
- Fecal protein digest. ([4]; sinapic acid 0.025% in diet): 68.5%
- Ileal protein digest. ([4]; sinapic acid 0.025% in diet): 81.5%
- AME (apparent metabolizable energy) ([4]; sinapic acid 0.025% in diet): 3412 kcal/kg
- Fecal protein digest. ([4]; sinapic acid 0.05% in diet): 66.3%
- Ileal protein digest. ([4]; sinapic acid 0.05% in diet): 78.8%
- AME (apparent metabolizable energy) ([4]; sinapic acid 0.05% in diet): 3418 kcal/kg
- Fecal protein digest. ([4]; sinapic acid 0.10% in diet): 66.5%
- Ileal protein digest. ([4]; sinapic acid 0.10% in diet): 80%
- AME (apparent metabolizable energy) ([4]; sinapic acid 0.10% in diet): 3442 kcal/kg
- Feed intake/bird ([5]; sinapic acid 0.025% in diet): 781^a g
- Gain ([5]; sinapic acid 0.025% in diet): 561 g
- Gain/feed ([5]; sinapic acid 0.025% in diet): 0.72
- Feed intake/bird ([5]; sinapic acid 0.05% in diet): 738^ab g
- Gain ([5]; sinapic acid 0.05% in diet): 545 g
- Gain/feed ([5]; sinapic acid 0.05% in diet): 0.74
- Feed intake/bird ([5]; sinapic acid 0.10% in diet): 689^b g
- Gain ([5]; sinapic acid 0.10% in diet): 491 g
- Gain/feed ([5]; sinapic acid 0.10% in diet): 0.71
- reduction of acetic acid level in cecal contents compared with control [6]: 15-20%
- reduction of total VFA level in cecal contents compared with control [6]: 15-20%

Reference: patent US20080113003A1, “Sinapic Acid Supplementation” (UNIVERSITY OF SASKATCHEWAN, priority 2004, published 2008)
